Source: US11306064B2, “Benzothia(di)azepine compounds and their use as bile acid modulators” (Albireo AB, priority 2018, dated 2022)

How the values were obtained:
Human ASBT = biological target: T1, Human ASBT (Homo sapiens, UniProt Q12908); test: ASBT (h/m) assay: 3H-taurocholic acid uptake in human ASBT-overexpressing cells; type: cell-based; details: 0.25 μM 3H-taurocholic acid and 5 μM cold taurocholic acid, 20 minutes, read-out: hASBT IC50
T1 construct: expressed in transfected cells; kept under Puromycin selection
T1 sequence (Q12908 1-348): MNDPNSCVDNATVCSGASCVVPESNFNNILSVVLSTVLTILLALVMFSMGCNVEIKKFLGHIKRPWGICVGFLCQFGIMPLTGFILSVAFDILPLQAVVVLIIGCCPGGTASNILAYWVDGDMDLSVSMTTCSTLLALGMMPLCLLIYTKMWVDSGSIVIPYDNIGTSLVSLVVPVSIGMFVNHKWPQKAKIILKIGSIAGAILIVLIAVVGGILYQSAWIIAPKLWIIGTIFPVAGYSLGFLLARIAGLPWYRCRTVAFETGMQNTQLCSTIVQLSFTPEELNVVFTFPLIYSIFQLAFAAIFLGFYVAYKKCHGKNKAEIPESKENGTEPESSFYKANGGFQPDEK
Procedure: ASBT (h/m) Assay Protocol
10,000 cells (Human or Mouse ASBT-overexpressing cells) were seeded in 96-wells plate (Corning CLS3809) in 200 μL MEM-alpha medium (Gibco 12571-063) supplemented with 10% FBS (Gibco 10438026) containing Puromycin (Gibco A1113803) (10 μg/mL) and incubated at 37° C. in 5% CO2 for 48 hours. After incubation, media was decanted from the wells and cells were washed two times with 300 μL of basal MEM-alpha medium (FBS-free). After decanting basal MEM-alpha medium each time, plates were tapped against paper towel to ensure maximum removal of residual media. Test inhibitor dilutions (highest test concentration being 10 μM, 3-fold serial dilution, 10 points) prepared in DMSO (Sigma D2650) were added in incubation mix (maintaining 0.2% final DMSO concentration) containing 0.25 μM 3H-taurocholic acid (ARC ART-1368) and 5 μM of cold taurocholic acid (Sigma T4009). 50 μL of incubation mix containing test inhibitors was then added to the wells (in duplicate) and the plates were incubated for 20 minutes in a CO2 incubator at 37° C. After incubation, the reaction was stopped by keeping the plates on ice water mix for 2-3 minutes and then the incubation mix was aspirated completely from the wells. The wells were washed two times with 250 μL of chilled unlabelled 1 mM taurocholic acid dissolved in HEPES (Gibco 15630080)-buffered (10 mM) HBSS (Gibco 14175079) (pH 7.4). The plates were tapped against a paper towel after every wash to ensure maximum removal of blocking buffer.
(§1) 100 μL of MicroScint-20 (PerkinElmer 6013621) was added to the wells and kept overnight at room temperature before reading the plates in TopCount NXT™ Microplate Scintillation and Luminescence Counter from PerkinElmer under 3H Test protocol (set at 120 seconds reading time per well).
(§2) Preparation of Test Compound Dilutions
(§3) All test compounds were provided in powder form at room temperature. 10 mM DMSO stocks of the test compounds were prepared, aliquoted and stored at −20° C. From the 10 mM DMSO stock of the compounds, a 3-fold serial dilution in DMSO was prepared to get a total of 10 dilutions of the test compounds. 0.5 μL of this dilution in DMSO was added to 250 μL of FBS-free basal media containing 3H-taurocholic acid and cold taurocholic acid to prepare the incubation mixture.

Human LBAT = biological target: T2, Human LBAT (Homo sapiens, UniProt Q14973); test: LBAT (h/m) assay: 3H-taurocholic acid uptake in human LBAT-overexpressing cells; type: cell-based; details: 0.3 μM 3H-taurocholic acid and 7.5 μM cold taurocholic acid, 20 minutes, read-out: hLBAT IC50
T2 construct: expressed in transfected cells; kept under Geneticin selection
T2 sequence (Q14973 1-349): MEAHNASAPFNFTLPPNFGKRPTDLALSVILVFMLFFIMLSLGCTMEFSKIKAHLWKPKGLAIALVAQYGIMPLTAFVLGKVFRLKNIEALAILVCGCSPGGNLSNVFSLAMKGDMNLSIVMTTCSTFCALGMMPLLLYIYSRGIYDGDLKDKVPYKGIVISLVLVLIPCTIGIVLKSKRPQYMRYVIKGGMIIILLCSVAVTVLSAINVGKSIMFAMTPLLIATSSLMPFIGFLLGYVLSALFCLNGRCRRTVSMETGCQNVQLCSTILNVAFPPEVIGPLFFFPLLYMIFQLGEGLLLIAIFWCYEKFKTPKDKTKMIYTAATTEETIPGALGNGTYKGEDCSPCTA
Procedure: LBAT (h/m) Assay Protocol
20,000 cells (Human or Mouse LBAT-overexpressing cells) were seeded in 96-wells plate (Corning CLS3809) in 100 μL MEM-alpha medium (Gibco 12571-063) supplemented with 10% FBS (Gibco 10438026) containing Geneticin (Gibco 10131-027) (1 mg/mL) and incubated at 37° C. in 5% CO2 for 24 hours. After incubation, media was decanted from the wells and cells were washed two times with 300 μL of basal MEM-alpha medium (FBS-free). After decanting basal MEM-alpha medium each time, plates were tapped against paper towel to ensure maximum removal of residual media. For human LBAT, incubation mix was prepared by adding test inhibitor dilutions (3-fold serial dilution in DMSO (Sigma D2650), 10 points) in MEM-alpha (without FBS) containing 0.3 μM 3H-taurocholic acid (ARC ART-1368) and 7.5 μM cold taurocholic acid (Sigma T4009) (maintaining 0.2% final DMSO concentration). For mouse LBAT, incubation mix was prepared by adding test inhibitor dilutions (3-fold serial dilution in DMSO, 10 points) in MEM-alpha (without FBS) containing 0.3 μM 3H-taurocholic acid and 25 μM cold taurocholic acid maintaining 0.2% final DMSO concentration).
50 μL of incubation mix containing test inhibitors was then added to the wells (in duplicate) and the plates were incubated for 20 minutes in a CO2 incubator at 37° C. After incubation, the reaction was stopped by keeping the plates on ice water mix for 2-3 minutes and then the incubation mix was aspirated completely from the wells. The wells were washed two times with 250 μL of chilled unlabelled 1 mM taurocholic acid dissolved in HEPES (Gibco 15630080)-buffered (10 mM) HBSS (Gibco 14175079) (pH 7.4). The plates were tapped against a paper towel after every wash to ensure maximum removal of blocking buffer.
as §1, with “well, with normal plate orientation).” for “well).”
as §2, §3

SMILES | IC50 (Human ASBT) | IC50 (Human LBAT)
CCCCC1(CC)CN(c2ccccc2)c2cc(Br)c(O/C=C/C(=O)O)cc2S(=O)(=O)C1 (racemic) [Example 4, (E)-3-((7-bromo-3-butyl-3-ethyl-1,1-dioxido-5-phenyl-2,3,4,5-tetrahydro-1,5-benzothiazepin-8-yl)oxy)acrylic acid] | 167 nM | 218 nM
CCCCC1(CC)CN(c2ccccc2)c2cc(SC)c(O/C=C\C(=O)O)cc2S(=O)(=O)C1 (racemic) [Example 59, (Z)-3-((3-butyl-3-ethyl-7-(methylthio)-1,1-dioxido-5-phenyl-2,3,4,5-tetrahydro-1,5-benzothiazepin-8-yl)oxy)acrylic acid] | 85 nM | 
CCCCC1(CC)CN(c2ccccc2)c2cc(SC)c(O/C=C/C(=O)O)cc2S(=O)(=O)N1 (racemic) [Example 76, (E)-3-((3-butyl-3-ethyl-7-(methylthio)-1,1-dioxido-5-phenyl-2,3,4,5-tetrahydro-1,2,5-benzothiadiazepin-8-yl)oxy)acrylic Acid] | 41 nM | 217 nM
CCCCC1(CC)CN(c2ccccc2)c2cc(NC)c(O/C=C/C(=O)O)cc2S(=O)(=O)C1 (racemic) [Example 91, (E)-3-((3-butyl-3-ethyl-7-(methylamino)-1,1-dioxido-5-phenyl-2,3,4,5-tetrahydro-1,5-benzothiazepin-8-yl)oxy)acrylic Acid] | 41 nM | 1300 nM
CCCCC1(CC)CN(c2ccccc2)c2cc(SC)c(O/C=C/C(=O)O)cc2S(=O)(=O)C1 (single isomer, unassigned) [Example 17, (E)-3-((3-butyl-3-ethyl-7-(methylthio)-1,1-dioxido-5-phenyl-2,3,4,5-tetrahydro-1,5-benzothiazepin-8-yl)oxy)acrylic acid] |  | 116 nM
CCCC[C@@]1(CC)CN(c2ccccc2)c2cc(SC)c(O/C=C\C(=O)O)cc2S(=O)(=O)C1 (single isomer, unassigned) [Example 60] | 39 nM | 4220 nM
CCCC[C@]1(CC)CN(c2ccccc2)c2cc(SC)c(O/C=C\C(=O)O)cc2S(=O)(=O)C1 (single isomer, unassigned) [Example 61] | 1620 nM | 
CCCC[C@]1(CC)CN(c2ccccc2)c2cc(SC)c(O/C=C/C(=O)O)cc2S(=O)(=O)N1 (single isomer, unassigned) [Example 78] | 156 nM | 96 nM
CCCC[C@@]1(CC)CN(c2ccccc2)c2cc(NC)c(O/C=C/C(=O)O)cc2S(=O)(=O)C1 (single isomer, unassigned) [Example 92] | 748 nM | 1470 nM

Continued by falling IC50 (Human LBAT), values first:

IC50 (Human ASBT) | IC50 (Human LBAT) | SMILES
52 nM | 3160 nM | CCCC[C@]1(CC)CN(c2ccccc2)c2cc(NC)c(O/C=C/C(=O)O)cc2S(=O)(=O)C1 (single isomer, unassigned) [Example 93]
1230 nM | 290 nM | CCCCC1(CC)CN(c2ccccc2)c2cc(Br)c(O/C=C/C(=O)O)cc2S(=O)(=O)C1 (single isomer, unassigned) [Example 5, (E)-3-((7-bromo-3-butyl-3-ethyl-1,1-dioxido-5-phenyl-2,3,4,5-tetrahydro-1,5-benzothiazepin-8-yl)oxy)acrylic acid]
2010 nM | 290 nM | CCCC[C@@]1(CC)CN(c2ccccc2)c2cc(SC)c(O/C=C/C(=O)O)cc2S(=O)(=O)N1C (single isomer, unassigned) [Example 89]
 | 96 nM | CCCCC1(CC)CN(c2ccccc2)c2cc(Cl)c(O/C=C/C(=O)O)cc2S(=O)(=O)C1 (single isomer, unassigned) [Example 51, (E)-3-((3-butyl-7-chloro-3-ethyl-1,1-dioxido-5-phenyl-2,3,4,5-tetrahydro-1,5-benzothiazepin-8-yl)oxy)acrylic acid]
 | 68 nM | CCCCC1(CCCC)CN(c2ccccc2)c2cc(SC)c(O/C=C(\F)C(=O)O)cc2S(=O)(=O)N1C [Example 105, (Z)-3-((3,3-dibutyl-2-methyl-7-(methylthio)-1,1-dioxido-5-phenyl-2,3,4,5-tetrahydro-1,2,5-benzothiadiazepin-8-yl)oxy)-2-fluoroacrylic Acid]
